In patent publication US8957096B2, “Herbicidally active oxime-ether-substituted benzoylamides” (Bayer Intellectual Property GmbH, priority 2011, dated 2015):

How the values were obtained:
Assay type in all cases: in vivo
[1] = test system: Amaranthus retroflexus; assay: Post-emergence herbicidal action against harmful plants; conditions: 504 h, application rate 80 g/ha, assessed visually after about 3 weeks vs untreated controls, read-out: herbicidal action in percent (%)
Method: (§1) 2. Post-Emergence Herbicidal Action Against Harmful Plants Seeds of monocotyledonous and dicotyledonous weed and crop plants are placed in sandy loam in wood-fiber pots, covered with soil and cultivated in a greenhouse under good growth conditions. 2 to 3 weeks after sowing, the test plants are treated at the one-leaf stage. The inventive compounds formulated in the form of wettable powders (WP) or as emulsion concentrates (EC) are then sprayed onto the green parts of the plants as an aqueous suspension or emulsion at a water application rate of 600 to 800 l/ha (converted) with addition of 0.2% wetting agent. After the test plants have been left to stand in the greenhouse under optimal growth conditions for about 3 weeks, the action of the formulations is assessed visually in comparison to untreated controls (herbicidal action in percent (%): 100% activity=the plants have died, 0% activity=like control plants). Here, the compounds Nos. 1-001, 1-002, 1-004, 1-005, 1-007, 1-008, 1-014, 1-015, 1-017, 1-018, 1-020, 1-033, 1-040, 1-041, 1-043, 1-044, 1-046, 1-047, 1-053, 1-054, 1-056, 1-057, 1-059, 1-060, 1-079, 1-080, 1-082, 1-083, 1-086, 1-092, 1-093, 1-095, 1-096, 1-098, 1-099, 2-015, 3-014, 3-015, 3-017, 3-018, 3-020, 5-082, 5-095, 6-017, 7-017 and 8-014 each show, at an application rate of 80 g/ha, an activity of at least 80% against Abuthilon theophrasti, Amaranthus retroflexus and Stellaria media. The compounds Nos. 4-092, 4-093, 5-004, 5-017, 5-043 and 5-056 each show, at an application rate of 80 g/ha, an activity of at least 80% against Echinocloa crus galli, Pharbitis purpureum and Stellaria media.

[2] = test system: Stellaria media; assay: as above; conditions: 504 h, application rate 80 g/ha, assessed visually after about 3 weeks vs untreated controls, read-out: herbicidal action in percent (%)
Method: as §1

[3] = test system: Abuthilon theophrasti; assay: as above; conditions: 504 h, application rate 80 g/ha, assessed visually after about 3 weeks vs untreated controls, read-out: herbicidal action in percent (%)
Method: as §1

[4] = test system: Stellaria media; assay: Pre-emergence herbicidal action against harmful plants; conditions: 504 h, application rate 320 g/ha, assessed visually after 3 weeks vs untreated controls, read-out: herbicidal activity in percent (%)
Excerpt: (§2) 1. Pre-Emergence Herbicidal Action Against Harmful Plants Seeds of monocotyledonous and dicotyledonous weed plants and crop plants are placed in wood-fiber pots in sandy loam and covered with soil. The compounds according to the invention, formulated in the form of wettable powders (WP) or as emulsion concentrates (EC), are then applied as aqueous suspension or emulsion at a water application rate of 600 to 800 l/ha (converted) with the addition of 0.2% of wetting agent to the surface of the covering soil. After the treatment, the pots are placed in a greenhouse and kept under good growth conditions for the test plants. The damage to the test plants is assessed visually after a test period of 3 weeks by comparison with untreated controls (herbicidal activity in percent (%): 100% activity=the plants have died, 0% activity=like control plants). Here, the compounds Nos. 1-002, 1-004, 1-007, 1-008, 1-043, 1-044, 1-046, 1-047, 1-060, 1-079, 1-080, 1-082, 1-083, 1-085, 1-095, 1-096, 1-098, 1-099, 1-059, 2-015, 3-015, 3-018, 3-020, 4-001, 4-118, 5-004, 5-017, 5-043, 5-056, 5-082, 5-095, 6-017, 7-017, 8-017 and 8-014, for example, each show, at an application rate of 320 g/ha, an activity of at least 80% against Abuthilon theophrasti and Amaranthus retroflexus. The compounds Nos. 1-001, 1-005, 1-014, 1-015, 1-017, 1-018, 1-020, 1-033, 1-040, 1-041, 1-053, 1-054, 1-056, 1-057, 1-092, 1-093, 3-014, 3-015, 8-014, 8-017 and 8-015 each show, at an application rate of 320 g/ha, an activity of at least 80% against Setaria viridis and Stellaria media. The compounds Nos. 3-017, 4-092 and 6-004 show, at an application rate of 320 g/ha, an activity of at least 80% against Amaranthus retroflexus and Veronica persica.

[5] = test system: Setaria viridis; assay: as above; conditions: 504 h, application rate 320 g/ha, assessed visually after 3 weeks vs untreated controls, read-out: herbicidal activity in percent (%)
Excerpt: as §2

[6] = test system: Amaranthus retroflexus; assay: as above; conditions: 504 h, application rate 320 g/ha, assessed visually after 3 weeks vs untreated controls, read-out: herbicidal activity in percent (%)
Excerpt: as §2

[7] = test system: Abuthilon theophrasti; assay: as above; conditions: 504 h, application rate 320 g/ha, assessed visually after 3 weeks vs untreated controls, read-out: herbicidal activity in percent (%)
Excerpt: as §2

CO/N=C/c1c(Cl)ccc(C(=O)Nc2nnnn2C)c1Cl [1-001]
≥ 80%: pest or weed control at 80 g/ha [1] | pest or weed control at 80 g/ha [2] | pest or weed control at 80 g/ha [3] | pest or weed control at 320 g/ha [4] | pest or weed control at 320 g/ha [5]

CCO/N=C/c1c(Cl)ccc(C(=O)Nc2nnnn2C)c1Cl [1-002]
≥ 80%: pest or weed control at 80 g/ha [1] | pest or weed control at 80 g/ha [2] | pest or weed control at 80 g/ha [3] | pest or weed control at 320 g/ha [6] | pest or weed control at 320 g/ha [7]

CO/N=C/c1c(S(C)(=O)=O)ccc(C(=O)Nc2nnnn2C)c1Cl [1-014]
≥ 80%: pest or weed control at 80 g/ha [1] | pest or weed control at 80 g/ha [2] | pest or weed control at 80 g/ha [3] | pest or weed control at 320 g/ha [4] | pest or weed control at 320 g/ha [5]

CCO/N=C/c1c(S(C)(=O)=O)ccc(C(=O)Nc2nnnn2C)c1Cl [1-015]
≥ 80%: pest or weed control at 80 g/ha [1] | pest or weed control at 80 g/ha [2] | pest or weed control at 80 g/ha [3] | pest or weed control at 320 g/ha [4] | pest or weed control at 320 g/ha [5]

CCn1nnnc1NC(=O)c1ccc(Cl)c(/C=N/OC)c1Cl [1-040]
≥ 80%: pest or weed control at 80 g/ha [1] | pest or weed control at 80 g/ha [2] | pest or weed control at 80 g/ha [3] | pest or weed control at 320 g/ha [4] | pest or weed control at 320 g/ha [5]

CCO/N=C/c1c(Cl)ccc(C(=O)Nc2nnnn2CC)c1Cl [1-041]
≥ 80%: pest or weed control at 80 g/ha [1] | pest or weed control at 80 g/ha [2] | pest or weed control at 80 g/ha [3] | pest or weed control at 320 g/ha [4] | pest or weed control at 320 g/ha [5]

CCn1nnnc1NC(=O)c1ccc(S(C)(=O)=O)c(/C=N/OC)c1Cl [1-053]
≥ 80%: pest or weed control at 80 g/ha [1] | pest or weed control at 80 g/ha [2] | pest or weed control at 80 g/ha [3] | pest or weed control at 320 g/ha [4] | pest or weed control at 320 g/ha [5]

CCO/N=C/c1c(S(C)(=O)=O)ccc(C(=O)Nc2nnnn2CC)c1Cl [1-054]
≥ 80%: pest or weed control at 80 g/ha [1] | pest or weed control at 80 g/ha [2] | pest or weed control at 80 g/ha [3] | pest or weed control at 320 g/ha [4] | pest or weed control at 320 g/ha [5]

C#CCON=Cc1c(S(C)(=O)=O)ccc(C(=O)Nc2nnnn2CC)c1Cl [1-057, 2-chloro-N-(1-ethyl-1H-tetrazol-5-yl)-4-(methylsulfonyl)-3-{[(prop-2-yn-1-yloxy)imino]methyl}benzamide]
≥ 80%: pest or weed control at 80 g/ha [1] | pest or weed control at 80 g/ha [2] | pest or weed control at 80 g/ha [3] | pest or weed control at 320 g/ha [4] | pest or weed control at 320 g/ha [5]

CCCn1nnnc1NC(=O)c1ccc(Cl)c(/C=N/OC)c1Cl [1-079]
≥ 80%: pest or weed control at 80 g/ha [1] | pest or weed control at 80 g/ha [2] | pest or weed control at 80 g/ha [3] | pest or weed control at 320 g/ha [6] | pest or weed control at 320 g/ha [7]

CCCn1nnnc1NC(=O)c1ccc(Cl)c(/C=N/OCC)c1Cl [1-080]
≥ 80%: pest or weed control at 80 g/ha [1] | pest or weed control at 80 g/ha [2] | pest or weed control at 80 g/ha [3] | pest or weed control at 320 g/ha [6] | pest or weed control at 320 g/ha [7]

CCCn1nnnc1NC(=O)c1ccc(S(C)(=O)=O)c(/C=N/OC)c1Cl [1-092]
≥ 80%: pest or weed control at 80 g/ha [1] | pest or weed control at 80 g/ha [2] | pest or weed control at 80 g/ha [3] | pest or weed control at 320 g/ha [4] | pest or weed control at 320 g/ha [5]

CCCn1nnnc1NC(=O)c1ccc(S(C)(=O)=O)c(/C=N/OCC)c1Cl [1-093]
≥ 80%: pest or weed control at 80 g/ha [1] | pest or weed control at 80 g/ha [2] | pest or weed control at 80 g/ha [3] | pest or weed control at 320 g/ha [4] | pest or weed control at 320 g/ha [5]

CCO/N=C/c1c(S(C)(=O)=O)ccc(C(=O)Nc2ncnn2C)c1Cl [2-015]
≥ 80%: pest or weed control at 80 g/ha [1] | pest or weed control at 80 g/ha [2] | pest or weed control at 80 g/ha [3] | pest or weed control at 320 g/ha [6] | pest or weed control at 320 g/ha [7]

CO/N=C/c1c(Cl)ccc(C(=O)Nc2nnc(C)o2)c1Cl [4-001]
≥ 80%: pest or weed control at 320 g/ha [6] | pest or weed control at 320 g/ha [7]

CC(C)=NOCc1c(Cl)ccc(C(=O)Nc2nnnn2C)c1Cl [5-004]
≥ 80%: pest or weed control at 80 g/ha [2] | pest or weed control at 320 g/ha [6] | pest or weed control at 320 g/ha [7]

CC(C)=NOCc1c(S(C)(=O)=O)ccc(C(=O)Nc2nnnn2C)c1Cl [5-017]
≥ 80%: pest or weed control at 80 g/ha [2] | pest or weed control at 320 g/ha [6] | pest or weed control at 320 g/ha [7]

CCn1nnnc1NC(=O)c1ccc(Cl)c(CON=C(C)C)c1Cl [5-043]
≥ 80%: pest or weed control at 80 g/ha [2] | pest or weed control at 320 g/ha [6] | pest or weed control at 320 g/ha [7]

CCn1nnnc1NC(=O)c1ccc(S(C)(=O)=O)c(CON=C(C)C)c1Cl [5-056]
≥ 80%: pest or weed control at 80 g/ha [2] | pest or weed control at 320 g/ha [6] | pest or weed control at 320 g/ha [7]

CCCn1nnnc1NC(=O)c1ccc(Cl)c(CON=C(C)C)c1Cl [5-082]
≥ 80%: pest or weed control at 80 g/ha [1] | pest or weed control at 80 g/ha [2] | pest or weed control at 80 g/ha [3] | pest or weed control at 320 g/ha [6] | pest or weed control at 320 g/ha [7]

CCCn1nnnc1NC(=O)c1ccc(S(C)(=O)=O)c(CON=C(C)C)c1Cl [5-095]
≥ 80%: pest or weed control at 80 g/ha [1] | pest or weed control at 80 g/ha [2] | pest or weed control at 80 g/ha [3] | pest or weed control at 320 g/ha [6] | pest or weed control at 320 g/ha [7]

CC(C)=NOCc1c(Cl)ccc(C(=O)Nc2ncnn2C)c1Cl [6-004]
≥ 80%: pest or weed control at 320 g/ha [6]

CC(C)=NOCc1c(S(C)(=O)=O)ccc(C(=O)Nc2ncnn2C)c1Cl [6-017, 2-chloro-4-(methylsulfonyl)-N-(1-methyl-1H-1,2,4-triazol-5-yl)-3-{[(propan-2-ylideneamino)oxy]methyl}benzamide]
≥ 80%: pest or weed control at 80 g/ha [1] | pest or weed control at 80 g/ha [2] | pest or weed control at 80 g/ha [3] | pest or weed control at 320 g/ha [6] | pest or weed control at 320 g/ha [7]

CC(C)=NOCc1c(S(C)(=O)=O)ccc(C(=O)Nc2nonc2C)c1Cl [7-017]
≥ 80%: pest or weed control at 80 g/ha [1] | pest or weed control at 80 g/ha [2] | pest or weed control at 80 g/ha [3] | pest or weed control at 320 g/ha [6] | pest or weed control at 320 g/ha [7]

C=NOCc1c(S(C)(=O)=O)ccc(C(=O)Nc2nnc(C)o2)c1Cl [8-014]
≥ 80%: pest or weed control at 80 g/ha [1] | pest or weed control at 80 g/ha [2] | pest or weed control at 80 g/ha [3] | pest or weed control at 320 g/ha [6] | pest or weed control at 320 g/ha [4] | pest or weed control at 320 g/ha [5] | pest or weed control at 320 g/ha [7]

CC=NOCc1c(S(C)(=O)=O)ccc(C(=O)Nc2nnc(C)o2)c1Cl [8-015]
≥ 80%: pest or weed control at 320 g/ha [4] | pest or weed control at 320 g/ha [5]

CC(C)=NOCc1c(S(C)(=O)=O)ccc(C(=O)Nc2nnc(C)o2)c1Cl [8-017]
≥ 80%: pest or weed control at 320 g/ha [6] | pest or weed control at 320 g/ha [4] | pest or weed control at 320 g/ha [5] | pest or weed control at 320 g/ha [7]
